# Assays:
# [1] = tested on: HUVEC; assay: HUVEC growth inhibition assay (NCI); assay type: cell-based, human; details: Homo sapiens, 72 h, crystal violet
# Experimental: Angiogenesis assays were provided by the NCI, details of the assay protocols are given below. In each assays TNP-470 and paclitaxel (Taxol®) were used as reference compounds. HUVEC (1.5×10^3) were plated in a 96-well plate in 100 μL of EBM-2 (Clonetic #CC3162). […] On day 0, one plate was stained with 0.5% crystal violet in 20% methanol for 10 minutes, rinsed with water, and air-dried. The remaining plates were incubated for 72 h at 37° C. After 72 h, plates were stained with 0.5% crystal violet in 20% methanol, rinsed with water and air-dried. The stain was eluted with 1:1 solution of ethanol:0.1 M sodium citrate (including day 0 plate), and absorbance was measured at 540 nm with an ELISA reader (Dynatech Laboratories). Day 0 absorbance was subtracted from the 72 h plates and data was plotted as percentage of control proliferation (vehicle treated cells).
# [2] = tested on: HUVEC; assay: HUVEC cord formation assay on matrigel (NCI); assay type: cell-based, human; details: Homo sapiens, 24 h
# Experimental: Angiogenesis assays were provided by the NCI, details of the assay protocols are given below. In each assays TNP-470 and paclitaxel (Taxol®) were used as reference compounds. Matrigel (60 μL of 10 mg/mL; Collaborative Lab #35423) was placed in each well of an ice-cold 96-well plate. The plate was allowed to sit at room temperature for 15 minutes then it was incubated at 37° C. for 30 minutes to permit the matrigel to polymerize. In the mean time, HUVEC were prepared in EGM-2 (Clonetic #CC3162) at a concentration of 2×10^5 cells/mL. […] The cells (500 μL) and the drug at 2 times concentration (500 μL) were mixed and 200 μL of this suspension was placed in duplicate on the polymerized matrigel. After 24 h incubation, triplicate pictures were taken for each concentration using a Bioquant Image Analysis system. Drug effect (IC50) is assessed compared to untreated controls by measuring the length of cords formed and number of junctions.
# [3] = tested on: HUVEC; assay: HUVEC cell migration (chemotaxis) assay, Boyden chamber (NCI); assay type: cell-based, human; details: Homo sapiens, 5 h
# Experimental: Angiogenesis assays were provided by the NCI, details of the assay protocols are given below. In each assays TNP-470 and paclitaxel (Taxol®) were used as reference compounds. Migration was assessed using the 48-well Boyden chamber and 8 μm pore size collagen-coated (10 μg/mL rat tail collagen; Collaborative Laboratories) polycarbonate filters (Osmonics, Inc.). The bottom chamber wells received 27-29 μL of DMEM medium alone (baseline) or medium containing chemo-attractant (bFGF, VEGF or Swiss 3T3 cell conditioned medium). The top chambers received 45 μL of HUVEC cell suspension (1×10^6 cells/mL) prepared in DMEM+1% BSA with or without test compound. After 5 h incubation at 37° C., the membrane was rinsed in PBS, fixed and stained in Diff-Quick solutions. The filter was placed on a glass slide with the migrated cells facing down and cells on top were removed using a Kimwipe. The testing was performed in 4-6 replicates and five fields were counted from each well. Negative, unstimulated, control values were subtracted from stimulated control and drug treated values and data was plotted as mean migrated cell±S.D. The IC50 was calculated from the plotted data.
# [4] = tested on: VEGFxxx and VEGFxxxb expression in RPE cells; assay: VEGF isoform ELISA of media of treated RPE cells; assay type: cell-based; details: 0.5 μM or 5 μM, 72 hours
# Experimental: Media was sampled after 72 hours treatment, and assessed for total VEGF and VEGFxxxb expression (see Bates et al., 2002, Woolard et al., 2004 and Varey et al., 2008 for methods).
# [5] = molecular target: T1, FBP21 (Homo sapiens, UniProt O75554); assay: Phage display biopanning with biotinylated bait, Human Colon Tumour Library; assay type: binding; details: SDS and E. coli elution
# T1 construct: encode 99 amino acids in frame with the phage coat protein of which a segment of 83 residues share 100% homology with FBP21; purchased Novagen; host or cells: T7 phage amplified in E. coli BLT5403
# T1 sequence (O75554 with tags, fused parts or gaps): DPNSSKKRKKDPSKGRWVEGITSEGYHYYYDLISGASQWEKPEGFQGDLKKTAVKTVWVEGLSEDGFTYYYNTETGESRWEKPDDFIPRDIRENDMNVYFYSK
# Experimental: Streptavidin wells were incubated with 1 μM biotinylated probe at 4° C. overnight to prepare the wells for biopanning. After incubation, unbound biotinylated probe was removed from the well by washing with phosphate buffered saline (PBS). Wells were then blocked with blocking solution (3% skimmed milk in PBS) for at least one hour at room temperature. Blocked wells were then briefly washed with PBS and were ready for biopanning use. […] In the first round of biopanning, 0.15 mL of amplified phage library was added to an empty streptavidin coated well and incubated at room temperature for at least 1 hour. This step was included to deselect any phage displaying streptavidin binding proteins. After incubation, the phage were removed from the well and mixed with 50 μL 4× blocking solution (12% skimmed milk in PBS) and incubated at room temperature for at least one hour. 0.125 mL of blocked phage library was added to each pre-prepared biotinylated well and incubated at room temperature for at least one hour. […] After incubation, unbound phage were removed from the well with wash solution. The wash solution was varied depending on the round of biopanning. For first round of biopanning PBS1 was used. For subsequent rounds the stringency of the wash was increased by using sequentially PBS2, PBS3 and PBS4 (see Table I). […]
# [6] = tested on: capillary tube formation; details: rat aorta matrix culture model, cited from earlier work
# [7] = tested on: human umbilical vein endothelial cells (HUVEC); details: cited from earlier work
# [8] = tested on: protein synthesis in the cultured rat cells; details: cited from earlier work
# [9] = tested on: WiDr cells induced angiogenesis; details: 1.8 mg/kg intraperitoneal injection, mouse dorsal air sac model; cited from earlier work
# [10] = tested on: B16-BL6 melanoma cells; details: same dosage (1.8 mg/kg); cited from earlier work
# [11] = tested on: WiDr cell lines of human colon cancer; details: cited from earlier work
# [12] = tested on: PC-3 cell lines of human prostate cancer; details: cited from earlier work
# [13] = tested on: Lewis lung adenocarcinoma; details: Lewis lung adenocarcinoma model; cited from earlier work
structure (smiles),measurement,setting,value
C[C@@H]1C[C@H](C)C[C@H](C)[C@@H](O)CC(=O)O[C@H]([C@@H]2CCC[C@H]2C(=O)O)C/C=C/C=C(/C#N)[C@H](O)[C@@H](C)C1 [Borrelidin],IC50,[1],3.25 nM
same,IC50,[2],46.5 nM
same,IC50,[3],63 nM
same,VEGFxxx expression (ELISA),[4],significant downregulation
same,VEGFxxxb expression (ELISA),[4],significant upregulation
same,identification of FBP21 fragment by biopanning (binding),[5],consistently identified an FBP21 fragment
same,"inhibition of capillary tube formation, IC50",[6],0.4 ng/mL
same,IC50,"[6]; read-out: inhibition of capillary tube formation, IC50",0.8 nM
same,"anti-proliferative activity towards HUVEC, IC50",[7]; cell growth assay,6 ng/mL
same,HUVEC anti-proliferative IC50 weaker than anti-angiogenesis activity,[7]; measured in the same medium,15 fold
same,anti-angiogenesis IC50 lower than IC50 for inhibition of protein synthesis,[8],50 fold
same,"inhibition of protein synthesis, IC50",[8]; cultured rat cells,20 ng/mL
same,increment of vascular volume induced by WiDr cells,[9],significantly reduce the increment of vascular volume
same,formation of spontaneous lung metastases of B16-BL6 melanoma cells,[10],effective for the inhibition of the formation of spontaneous lung metastases
same,effect against WiDr cell lines,[11],effective against WiDr cell lines
same,effect against PC-3 cell lines,[12],also against PC-3 cell lines
same,propagation of metastatic nodules after removal of the primary tumour,[13],weakly inhibited

# Reference: patent US20110027185A1, “Methods of Screening for Anti-Angiogenic Compounds” (priority 2007, published 2011)
